From patent publication US20200163984A1, “USE OF ISOVALERYL SPIRAMYCIN I, II AND/OR III IN MANUFACTURING MEDICAMENT FOR TREATING AND/OR PREVENTING TUMOR, AND MEDICAMENT” (SHENYANG FUYANG PHARMACEUTICAL TECHNOLOGY CO., LTD., priority 2017, published 2020)

Legend:
[1] = system: transplanted tumor of human lymphoma cell U937; assay: U937 transplanted tumor in nude mice; conditions: for Tumor Volume (mm3) (d 1): d1
Protocol: (§1) U937 cells in a logarithmic growth phase were taken and subjected to a trypan blue exclusion experiment showing that the cell viability was more than 95%, then the cells were subjected to trypsinization, centrifugation, and supernatant removal. Then cell concentration was adjusted to 1×10^7/ml with matrigel, then each nude mouse was inoculated subcutaneously with 0.2 ml of cells at its right armpit and recorded as the first day of inoculation. When the tumor grows to be greater than or equal to 100 mm^3, the mice were randomly divided into 11 groups with 6 mice in each group: a model group, a cyclophosphamide group, isovaleryl spiramycin I groups with doses of 25, 50 and 100 mg/kg, isovaleryl spiramycin II groups with doses of 25, 50 and 100 mg/kg, and isovaleryl spiramycin III groups with doses of 25, 50 and 100 mg/kg. Each group was continuously administered intragastrically for 30 days with a dose of 20 ml/kg. The mice were sacrificed the next day after drug withdrawal and the indicators were tested. The long diameter and short diameter of the tumor, and the body weight of each mouse were recorded every 3 days from drug administration to nude mouse sacrifice.
(§2) The body weight of the nude mice and the long diameter (a) and short diameter (b) of the transplanted tumor were measured every 3 days, and the tumor volume (v), relative tumor volume (RTV) and relative tumor proliferation rate (T/C) are calculated respectively according to the following formulas, wherein V=a×b^2/2; RTV=V/V0 (V0 is the tumor volume before administration, V is the tumor volume before sacrifice), and T/C (%)=treatment group RTV/model control group RTV×100%.
(§3) Each mouse was weighed and sacrificed. After the tumor was completely stripped off from the body of the mouse, the non-tumor tissues such as blood stains and fat were removed to weigh the tumor and calculate the tumor growth inhibition rate. The average tumor weight of each group of mice is used as an indicator of efficacy. Tumor growth inhibition rate (%)=(1−the average tumor weight of the treatment group/the average tumor weight of the model group)×100%.

[2] = system: transplanted tumor of HL60 cells; assay: HL-60 transplanted tumor in nude mice; conditions: for Tumor Volume (mm3) (d30): d 30
Protocol: as §1, with “HL-60” for “U937”, “group:” for “group: a model group, a cyclophosphamide group,”, “the” for “the body”
as §2, §3

[3] = system: transplanted tumor of human gastric adenocarcinoma cell SGC7901; assay: SGC7901 transplanted tumor in nude mice
Protocol: as §1, with “Then” for “U937 cells in a logarithmic growth phase were taken and subjected to a trypan blue exclusion experiment showing that the cell viability was more than 95%, then the cells were subjected to trypsinization, centrifugation, and supernatant removal. Then”
as §2, §3

[4] = U937, high dose (100 mg/kg in method) i.g. 30 days
[5] = U937, low dose (25 mg/kg in method) i.g. 30 days
[6] = U937, medium dose (50 mg/kg in method) i.g. 30 days
[7] = HL-60, high dose (100 mg/kg in method) i.g. 30 days
[8] = HL-60, low dose (25 mg/kg in method) i.g. 30 days
[9] = HL-60, medium dose (50 mg/kg in method) i.g. 30 days
[10] = SGC7901, 12.5 mg/kg (low dose) i.g. 30 days
[11] = SGC7901, 25 mg/kg (medium dose) i.g. 30 days
[12] = SGC7901, 50 mg/kg (high dose) i.g. 30 days

mouse weight compared with the model group ([1]; mouse, in vivo): no significant changes
mouse weight compared with the model group ([2]; mouse, in vivo): no significant changes
mouse weight compared with the model group ([3]; mouse, in vivo): no significant changes
Structure (SMILES): CO[C@@H]1[C@@H](O[C@@H]2O[C@H](C)[C@@H](O[C@H]3C[C@@](C)(O)[C@@H](OC(=O)CC(C)C)[C@H](C)O3)[C@H](N(C)C)[C@H]2O)[C@@H](CC=O)C[C@@H](C)[C@@H](O[C@H]2CC[C@H](N(C)C)[C@@H](C)O2)/C=C/C=C/C[C@@H](C)OC(=O)C[C@H]1O [Isovaleryl spiramycin I, isovaleryl spiramycin I]
Relative Tumor Proliferation Rate (T/C) [1, 4]: 35.25%
tumor growth inhibition rate [1, 4]: 65.03%
Relative Tumor Proliferation Rate (T/C) [1, 5]: 68.65%
tumor growth inhibition rate [1, 5]: 41.73%
tumor volume and relative tumor volume compared with the model group ([1]; U937, low, medium and high doses, P<0.05): significantly lower
Relative Tumor Proliferation Rate (T/C) [1, 6]: 39.74%
tumor growth inhibition rate [1, 6]: 50.73%
Inhibition Rate (%) ([1]; U937 nude mice, 12.5 mg/kg): 41.73%
Relative Tumor Proliferation Rate (T/C) ([1]; U937 nude mice, 12.5 mg/kg): 68.65%
Relative Tumor Volume (RTV) ([1]; U937 nude mice, 12.5 mg/kg): 11.70 ± 3.59
Tumor Weight ([1]; U937 nude mice, 12.5 mg/kg): 1.13 ± 0.60 g
Tumor Volume (mm3) (d 1) ([1]; U937 nude mice, 12.5 mg/kg): 108.43 ± 6.49 mm3
Tumor Volume (mm3) (d30) ([1]; U937 nude mice, 12.5 mg/kg): 1270.43 ± 435.28 mm3
Inhibition Rate (%) ([1]; U937 nude mice, 25 mg/kg): 50.73%
Relative Tumor Proliferation Rate (T/C) ([1]; U937 nude mice, 25 mg/kg): 39.74%
Relative Tumor Volume (RTV) ([1]; U937 nude mice, 25 mg/kg): 6.77 ± 0.57
Tumor Weight ([1]; U937 nude mice, 25 mg/kg): 0.95 ± 0.42 g
Tumor Volume (mm3) (d 1) ([1]; U937 nude mice, 25 mg/kg): 108.61 ± 9.06 mm3
Tumor Volume (mm3) (d30) ([1]; U937 nude mice, 25 mg/kg): 734.22 ± 76.87 mm3
Inhibition Rate (%) ([1]; U937 nude mice, 50 mg/kg): 65.03%
Relative Tumor Proliferation Rate (T/C) ([1]; U937 nude mice, 50 mg/kg): 35.25%
Relative Tumor Volume (RTV) ([1]; U937 nude mice, 50 mg/kg): 6.01 ± 2.26
Tumor Weight ([1]; U937 nude mice, 50 mg/kg): 0.68 ± 0.09 g
Tumor Volume (mm3) (d 1) ([1]; U937 nude mice, 50 mg/kg): 109.98 ± 5.88 mm3
Tumor Volume (mm3) (d30) ([1]; U937 nude mice, 50 mg/kg): 660.17 ± 37.49 mm3
Body Weight (g) (d1) ([1]; mouse, in vivo, 12.5 mg/kg): 21.19 ± 0.66 g
Body Weight (g) (d30) ([1]; mouse, in vivo, 12.5 mg/kg): 21.16 ± 0.74 g
Body Weight (g) (d1) ([1]; mouse, in vivo, 25 mg/kg): 21.28 ± 0.52 g
Body Weight (g) (d30) ([1]; mouse, in vivo, 25 mg/kg): 21.01 ± 0.68 g
Body Weight (g) (d1) ([1]; mouse, in vivo, 50 mg/kg): 20.64 ± 0.39 g
Body Weight (g) (d30) ([1]; mouse, in vivo, 50 mg/kg): 20.94 ± 0.77 g
Relative Tumor Proliferation Rate (T/C) [2, 7]: 32.70%
tumor growth inhibition rate [2, 7]: 64.19%
Relative Tumor Proliferation Rate (T/C) [2, 8]: 84.96%
tumor growth inhibition rate [2, 8]: 11.57%
tumor volume and relative tumor volume compared with the model group ([2]; HL-60, low, medium and high doses, P<0.05): significantly lower
Relative Tumor Proliferation Rate (T/C) [2, 9]: 59.54%
tumor growth inhibition rate [2, 9]: 34.78%
Inhibition Rate (%) ([2]; dose 25 mg/kg): 11.57%
Relative Tumor Proliferation Rate (T/C) ([2]; dose 25 mg/kg): 84.96%
Relative Tumor Volume (RTV) ([2]; dose 25 mg/kg): 9.56 ± 2.41
Tumor Weight ([2]; dose 25 mg/kg): 2.00 ± 0.34 g
Tumor Volume (mm3) (d 1) ([2]; dose 25 mg/kg): 182.56 ± 25.80 mm3
Tumor Volume (mm3) (d30) ([2]; dose 25 mg/kg): 1702.01 ± 305.75 mm3
Inhibition Rate (%) ([2]; dose 50 mg/kg): 34.78%
Relative Tumor Proliferation Rate (T/C) ([2]; dose 50 mg/kg): 59.54%
Relative Tumor Volume (RTV) ([2]; dose 50 mg/kg): 6.70 ± 2.58
Tumor Weight ([2]; dose 50 mg/kg): 1.48 ± 0.38 g
Tumor Volume (mm3) (d 1) ([2]; dose 50 mg/kg): 189.04 ± 24.48 mm3
Tumor Volume (mm3) (d30) ([2]; dose 50 mg/kg): 1230.70 ± 332.94 mm3
Inhibition Rate (%) ([2]; dose 100 mg/kg): 64.19%
Relative Tumor Proliferation Rate (T/C) ([2]; dose 100 mg/kg): 32.70%
Relative Tumor Volume (RTV) ([2]; dose 100 mg/kg): 3.68 ± 2.51
Tumor Weight ([2]; dose 100 mg/kg): 0.81 ± 0.42 g
Tumor Volume (mm3) (d 1) ([2]; dose 100 mg/kg): 183.82 ± 20.41 mm3
Tumor Volume (mm3) (d30) ([2]; dose 100 mg/kg): 657.95 ± 411.53 mm3
Body Weight (g) (d1) ([2]; mouse, in vivo, 25 mg/kg): 20.75 ± 1.20 g
Body Weight (g) (d30) ([2]; mouse, in vivo, 25 mg/kg): 20.66 ± 1.08 g
Body Weight (g) (d1) ([2]; mouse, in vivo, 50 mg/kg): 20.4 ± 1.60 g
Body Weight (g) (d30) ([2]; mouse, in vivo, 50 mg/kg): 20.35 ± 1.20 g
Body Weight (g) (d1) ([2]; mouse, in vivo, 100 mg/kg): 20.63 ± 1.33 g
Body Weight (g) (d30) ([2]; mouse, in vivo, 100 mg/kg): 20.56 ± 1.77 g
Inhibition Rate (tumor growth inhibition rate) [3, 10]: 31.56%
Relative Tumor Proliferation Rate (T/C) [3, 10]: 61.13%
Relative Tumor Volume (RTV) [3, 10]: 5.37 ± 3.46
Tumor Volume (d 1) [3, 10]: 412.96 ± 157.62 mm3
Tumor Volume (d 30) [3, 10]: 2815.50 ± 770.23 mm3
Tumor Weight [3, 10]: 1.07 ± 0.53 g
Inhibition Rate (tumor growth inhibition rate) [3, 11]: 53.13%
Relative Tumor Proliferation Rate (T/C) [3, 11]: 42.67%
Relative Tumor Volume (RTV) [3, 11]: 3.98 ± 2.78
Tumor Volume (d 1) [3, 11]: 258.63 ± 104.26 mm3
Tumor Volume (d 30) [3, 11]: 1230.76 ± 635.23 mm3
Tumor Weight [3, 11]: 0.74 ± 0.52 g
Inhibition Rate (tumor growth inhibition rate) [3, 12]: 70.78%
Relative Tumor Proliferation Rate (T/C) [3, 12]: 20.23%
Relative Tumor Volume (RTV) [3, 12]: 3.64 ± 1.65
Tumor Volume (d 1) [3, 12]: 279.56 ± 156.70 mm3
Tumor Volume (d 30) [3, 12]: 630.69 ± 458.86 mm3
Tumor Weight [3, 12]: 0.46 ± 0.36 g
tumor volume and relative tumor volume compared with the model group ([3]; SGC7901, low, medium and high doses, P<0.05): significantly lower
